How the values were obtained:
[1] = tested on: carrageenan induced edema of the rats hind paw; experiment: carrageenan induced edema of the rat hind paw; assay type: in vivo; settings: for activity relative to coumarin: "at least 1.5-2.5 times more active than coumarin"; for reduction of carrageenan induced edema: at all the times (1; 3; 4 and 5 h)
Source text: 6-fluoro coumarin and the compounds of the invention are also effective in the management of the acute inflammation.
The carrageenan edema test proposed by Winter C. A., Risley A., Noss G. W. (Proc. Soc. Exp. Biol., 101, 544, 1962) was used.
The compounds, administered i.p. 30' before the carrageenan as suspension in 1% aqueous carboxymethylcellulose homogeneized by ultrasounds, were compared with coumarin at different dose-levels on 6 animal groups. The percent reduction of the rat hind paw edema was evaluated at different times.

[2] = tested on: mouse peritoneal macrophages; experiment: proteolysis by mouse peritoneal macrophages; settings: 50 mg/kg i.p. in sesame oil, 10 replication; coumarin = 1
Source text: Ability of the 6-fluoro coumarin itself, and the other compounds of the invention, to increase proteolysis by mouse peritoneal macrophages is shown by using the testing procedure reported by T. Bolton and J. R. Casley-Smith, Experimentia, 31, 275 (1975).
Due to the great standard error, many replications are necessary in order to obtain reliable dose-response curves.

[3] = tested on: blood-dot area in right ear; experiment: re-absorption of citrated blood injected in the rabbit ear (blood-dot area); assay type: in vivo, New Zealand rabbits; settings: oral, placebo 20.3
Procedure: Finally, the compounds of the invention are able to induce re-absorption of the total citrated blood when blood is injected in the right ear of New Zealand rabbits. 12 hours after blood inoculation into ear, the animal were randomized and treated with scalar doses of the investigated compounds administered for 4 days by oral route. The blood-dot areas are evaluated and compared with the areas of the control animals treated with placebo only. In table 5 are reported some experimental results.

[4] = tested on: burning induced oedema of hind paws; experiment: burning induced oedema test; assay type: in vivo, Sprague-Dawley male rats; settings: burning induced oedema
Procedure: Reduction of the burning induced oedema test has been also used to evidentiate the antiinflammatory activity and the proteolytic mechanism of action of the compounds of the invention. 18 hours-fasted Sprague-Dawley male rats, body weight: 170-220 g, are used in this testing procedure. The animals are divided into five animal groups and the volume (in ml) of the posterior hind paws is measured before these paws are burnt by immersion for 22 seconds in 55° C. heated water. 15 minutes after burning, the animals are treated, by oral route, with different dosages of the investigated compounds and placebo. The volume of paws is measured 6, 12 and 18 hours after burning and the increased volume of the paws is evaluated.

coagulation factors = experiment: coagulation parameters (DPTT, Hepato quick, clotting time); assay type: in vivo; settings: oral, 2 consecutive days, equimolecular doses
coagulation = settings: Schofield; Feuer et al.; cited from earlier work

Row | SMILES | activity relative to coumarin [1] | reduction of carrageenan induced edema [1] | Potency ratio in the proteolytic test [2] | activity relative to 6-fluoro coumarin (equiactive) [4] | % Reduction of the edema by carrageenan ([1]; 0.76 mg/kg i.p., 3 h) [%] | % Reduction of the edema by carrageenan ([1]; 1.55 mg/kg i.p., 3 h) [%] | % Reduction of the edema by carrageenan ([1]; 3.12 mg/kg i.p., 3 h) [%] | % Reduction of the edema by carrageenan ([1]; 3.12 mg/kg i.p., 5 h) [%] | % Reduction of the edema by carrageenan ([1]; 6.25 mg/kg i.p., 3 h) [%] | further results
1 | Cc1cc(=O)oc2ccc(F)cc12 [4-methyl-6-F, 6-fluoro-4-methyl-2H-1-benzopyran-2-one] | 1.5-2.5 times | reduce carrageenan induced edema of the rats hind paw at all the times | 1.78 | 0.85-1.5 times | – | – | – | – | – | % reduction of blood-dot area after 4 days ([3]; 50 mg/kg pro die): 65%
2 | OC1C=Cc2cc(F)ccc2O1 (stereo not shown) [6-fluoro-2H--1-benzopyran-2.zeta.-ol, 6-fluoro-2H-1-benzopyran-2.xi.-ol] | 1.5-2.5 times | reduce carrageenan induced edema of the rats hind paw at all the times | 1.45 | – | – | – | – | – | – | % reduction of blood-dot area after 4 days ([3]; 40 mg/kg pro die): 59%
3 | COC1C=Cc2cc(F)ccc2O1 (stereo not shown) [6-fluoro-2.xi.-methoxy-2H-1-benzopyrane] | 1.5-2.5 times | reduce carrageenan induced edema of the rats hind paw at all the times | – | 0.85-1.5 times | 58 | 70 | 79 | 87 | 84 | –
4 | COC1Oc2ccc(F)cc2C=C1Br (stereo not shown) [6-fluoro-3-bromo-2.xi.-methoxy-2H-1-benzopyrane] | 1.5-2.5 times | reduce carrageenan induced edema of the rats hind paw at all the times | – | 0.85-1.5 times | – | – | – | – | – | –
5 | O=c1oc2ccccc2c(O)c1Cc1c(O)c2ccccc2oc1=O [dicoumarol, reference compound] | – | – | – | – | – | – | – | – | – | effect on DPTT (coagulation factors): very strong effect; effect on Hepato quick (coagulation factors): very strong effect; anticoagulant activity (coagulation): anticoagulant activites
6 | OC1Oc2ccc(F)cc2C=C1Br (stereo not shown) [6-fluoro-3-bromo-2.xi.-hydroxy-2H-1-benzopyrane] | – | – | – | – | 65 | 72 | 88 | 84 | 87 | –
